# Measurements: PMC11106456, “Increased Vasoactive Intestinal Peptide (VIP) in polycystic ovary syndrome patients undergoing IVF” (Frontiers in Endocrinology, 2024)
# Assay: Biological stability of VIP in follicular fluid (ELISA, during defrosting)
# Format: in vitro ADME
# Conditions: human follicular fluid samples from IVF patients, stored at -80°C, measured during defrosting process; read-out sandwich ELISA (450 nm); p<0.05; Supplementary Figure 1
# Method: FF was obtained after oocyte retrieval during IVF according to the following procedure. The follicular fluid aspirated from each patient was pooled in conical bottomed 15 ml polypropylene tubes and centrifugated at 1000 g for 3 minutes at 21°C. The supernatant was collected, transported to the laboratory and stored at -80°C until further analysis.
# The enzyme-linked immunosorbent assay (ELISA) used to quantify VIP in follicular samples was based on the principle of sandwich enzyme immunoassay. The quantification was performed following manufacturer’s protocol of ELISA kit (ELK Biotechnology CO., Ltd). Briefly, the microtiter plate provided has been pre-coated with an antibody specific for VIP. 100 μL of standards and samples were added to the appropriate microtiter plate wells and incubated for 80 minutes at 37°C. After the wash, 100 μl/well of biotin-conjugated antibody solution was added and incubated for 50 minutes at 37°C. […] Next, a final wash was performed and 90 μL of 5-5’-tetramethylbenzidine (TMB) substrate solution was added and the color development was monitored and quantified after the addition of sulfuric acid solution. The absorbance was measured spectrophotometrically at 450 nm by using microplate spectrophotometer (Labsystem Multiskan MS). […] The concentration of VIP in the samples was determined by comparing the optical density of the samples to the standard curve. […]
structure (smiles),measurement,value
"CC[C@H](C)[C@H](NC(=O)[C@H](CO)NC(=O)[C@H](CC(N)=O)NC(=O)[C@H](CC(C)C)NC(=O)[C@H](Cc1ccc(O)cc1)NC(=O)[C@H](CCCCN)NC(=O)[C@H](CCCCN)NC(=O)[C@@H](NC(=O)[C@H](C)NC(=O)[C@H](CCSC)NC(=O)[C@H](CCC(N)=O)NC(=O)[C@H](CCCCN)NC(=O)[C@H](CCCN=C(N)N)NC(=O)[C@H](CC(C)C)NC(=O)[C@H](CCCN=C(N)N)NC(=O)[C@@H](NC(=O)[C@H](Cc1ccc(O)cc1)NC(=O)[C@H](CC(N)=O)NC(=O)[C@H](CC(=O)O)NC(=O)[C@@H](NC(=O)[C@H](Cc1ccccc1)NC(=O)[C@@H](NC(=O)[C@H](C)NC(=O)[C@H](CC(=O)O)NC(=O)[C@H](CO)NC(=O)[C@@H](N)Cc1c[nH]cn1)C(C)C)[C@@H](C)O)[C@@H](C)O)C(C)C)C(=O)N[C@@H](CC(C)C)C(=O)N[C@@H](CC(N)=O)C(N)=O [VIP, Vasoactive intestinal peptide]",VIP concentration in follicular fluid over time (biological stability),significant reduction
